According to patent US5070210A, “Novel ketenimines as intermediates for insecticides” (ICI Americas Inc., priority 1990, dated 1991):

Key:
Type in all cases: in vivo
[1] = system: Maize weevil [Sitophilus Zeamais (Motschulsky)]; assay: Maize weevil insecticidal test; details: adult weevils, percent in solution; 48 hours
Protocol: The compounds in Tables 1 and 2 above were tested for insecticidal activity using the following testing procedures. LC50 values, based on the results of these tests and calculated according to dosage-mortality curves, are expressed in Table 3.
Maize weevil [Sitophilus Zeamais (Motschulsky)]:
Test compounds were diluted in a 50:50 acetone:water solution. Four corn seeds [Zea mays (L.)] which had been immersed in test solutions for 2-3 seconds and allowed to dry were placed in containers together with 10 adult weevils. The containers were covered and kept at a temperature of about 25° C. Mortality was recorded after 48 hours. Test concentrations ranged from 0.01% down to that at which 50% mortalilty occurred. The LC50 values are expressed below in Table 3 under the heading "MW" in terms of percent of the test compound in solution.

[2] = system: Cabbage Looper [Trichoplusia ni (Hubner)]; assay: Cabbage looper insecticidal test; details: second-instar larvae, percent in solution; 3-5 days
How it was run: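 Squash cotyledons dipped in test solution (acetone-water 50-50, ≤0.1%), dried, offered to 5 second-instar larvae; mortality after 3-5 days gives LC50.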

[3] = system: Housefly [Musca domestica]; assay: Housefly insecticidal test; details: μg per 25 female flies; mortality after 48 hours
How it was run: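 Dry-film exposure of 25 female houseflies per cage, 48 h; LC50 as μg per 25 flies.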

[4] = system: Tobacco Budworm [Heliothis virescens (Fabricius)] eggs; assay: Tobacco budworm egg test; details: 2-day old eggs, percent in solution
How it was run: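 Step 1: dip 2-day old egg patches in acetone test solutions (top concentration 0.1%). Step 2: hold in dishes with rearing medium at 78° F. Step 3: record mortality after control hatch and feeding.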

Compound | LC50, MW [1] | LC50, CL [2] | LC50, HF [3] | LC50, TBW, E (TBW-E) [4]
CC(C)C(=Nc1cccc([N+](=O)[O-])c1)OCc1cccc(Oc2ccccc2)c1 [Compound 302] | > 0.01% | 0.003% | 15 µg | > 0.1%
CC(C)C(=Nc1c(F)c(F)cc(F)c1F)OCc1cccc(Oc2ccc(F)cc2)c1 [Compound 304] | > 0.01% | 0.0024% | > 100 µg | > 0.1%
CC(Br)C(=Nc1ccc2c(c1)OCO2)OCc1cccc(Oc2ccccc2)c1 (stereo not drawn) [Compound 306] | > 0.01% | 0.005% | > 100 µg | 0.1%
CC(C)C(=Nc1ccc([N+](=O)[O-])c(C(F)(F)F)c1)OCc1cccc(Oc2ccccc2)c1 [Compound 307] | > 0.01% | 0.002% | > 100 µg | 0.08%
CC(C)C(=Nc1ccc(F)c(I)c1)OCc1ccc(F)c(Oc2ccccc2)c1 [Compound 334] | > 0.01% | 0.0007% | 9 µg | 0.013%
CC(C)c1ccc(N=C(OCc2cccc(Oc3ccccc3)c2)C2CCC2)cc1 [Compound 339] | > 0.01% | 0.017% | > 100 µg | > 0.1%
CC(C)C(=Nc1ccc(Cl)c(C(F)(F)F)c1)OCc1ccc(F)c(Oc2ccc(F)cc2)c1 [Compound 340] | 0.0069% | 0.00037% | 34 µg | 0.04%
CC(C)C(=Nc1cccc(Cl)c1)OCc1ccc(F)c(Oc2ccc(F)cc2)c1 [Compound 341] | > 0.01% | 0.0005% | 4 µg | 0.023%
CC(C)C(=Nc1cccc(F)c1)OCc1ccc(F)c(Oc2ccc(F)cc2)c1 [Compound 342] | > 0.01% | 0.0008% | 4.1 µg | 0.04%
Cc1ccc(Oc2cccc(COC(=Nc3ccc(C(C)(C)C)cc3)C(C)C)c2)cc1 [Compound 344] | > 0.01% | 0.024% | > 100 µg | > 0.1%
COc1ccc(Oc2cccc(COC(=Nc3ccc(C(C)(C)C)cc3)C(C)C)c2)cc1 [Compound 345] | > 0.01% | 0.018% | > 100 µg | > 0.1%
CCOc1ccc(N=C(OCc2cccc(Oc3ccccc3)c2)C(C)C)cc1Cl [Compound 368] | > 0.01% | 0.002% | < 100 µg | 0.04%
CCOc1ccc(N=C(OCc2cccc(Oc3ccccc3)c2)C(C)C)cc1 [Compound 371] | > 0.01% | 0.0022% | < 100 µg | > 0.1%
CCOc1ccc(N=C(OCc2ccc(F)c(Oc3ccc(Cl)cc3)c2)C(C)C)cc1 [Compound 372] | > 0.01% | > 0.1% | > 100 µg | > 0.1%
CCOc1ccc(N=C(OCc2ccc(F)c(Oc3ccccc3)c2)C(C)C)cc1 [Compound 373] | > 0.01% | > 0.1% | < 100 µg | > 0.1%
CC(C)C(=Nc1ccc(I)c(Cl)c1)OCc1cccc(Oc2ccc(F)cc2)c1 [Compound 374] | > 0.01% | 0.00058% | < 100 µg | 0.02%
CC(C)C(=Nc1ccc(F)c(Br)c1)OCc1ccc(F)c(Oc2ccc(Cl)cc2)c1 [Compound 379] | > 0.01% | 0.00075% | < 100 µg | 0.02%
CC(C)C(=Nc1ccc(Br)c(Br)c1)OCc1ccc(F)c(Oc2ccc(F)cc2)c1 [Compound 383] | > 0.01% | 0.00029% | < 100 µg | 0.038%
CC(C)C(=Nc1ccc(Br)c(Br)c1)OCc1ccc(F)c(Oc2ccccc2)c1 [Compound 384] | > 0.01% | > 0.1% | < 100 µg | 0.025%
CC(C)C(=Nc1ccc(I)c(Cl)c1)OCc1ccc(F)c(Oc2ccc(F)cc2)c1 [Compound 385] | > 0.01% | > 0.1% | < 100 µg | > 0.1%

Compound | LC50, MW [1] | LC50, CL [2] | LC50, HF [3] | LC50, TBW, E (TBW-E) [4]
CC(C)C(=Nc1cccc(Br)c1)OCc1ccc(F)c(Oc2ccc(Cl)cc2)c1 [Compound 386] | > 0.01% | 0.0012% | < 100 µg | > 0.1%
CC(C)C(=Nc1ccc(Cl)c(C(F)(F)F)c1)OCc1ccc(F)c(Oc2ccccc2)c1 [Compound 388] | > 0.01% | 0.0012% | < 100 µg | > 0.1%
CC(C)C(=Nc1cccc(I)c1)OCc1cccc(Oc2ccc(Cl)cc2)c1 [Compound 389] | > 0.01% | 0.00069% | < 100 µg | > 0.1%
CC(C)C(=Nc1cccc(Cl)c1)OCc1ccc(F)c(Oc2ccc(Cl)cc2)c1 [Compound 390] | > 0.01% | 0.0021% | < 100 µg | 0.045%
CC(C)C(=Nc1ccc(C#N)cc1)OCc1ccc(F)c(Oc2ccc(Cl)cc2)c1 [Compound 392] | > 0.01% | 0.00034% | < 100 µg | 0.039%
CC(C)C(=Nc1ccc(C#N)cc1)OCc1cccc(Oc2ccc(Cl)cc2)c1 [Compound 393] | > 0.01% | 0.00037% | < 100 µg | > 0.1%
CC(C)C(=Nc1ccc(C#N)cc1)OCc1ccc(F)c(Oc2ccc(F)cc2)c1 [Compound 394] | > 0.01% | 0.00025% | < 100 µg | 0.05%
CC(C)C(=Nc1ccc(F)c(Cl)c1F)OCc1ccc(F)c(Oc2ccc(Cl)cc2)c1 [Compound 395] | 0.004% | < 0.1% | 8.6 µg | 0.018%
Cc1cc(N=C(OCc2ccc(F)c(Oc3ccc(F)cc3)c2)C(C)C)ccc1F [Compound 396] | > 0.01% | 0.0017% | < 100 µg | < 0.1%
Cc1cc(N=C(OCc2cccc(Oc3ccc(Cl)cc3)c2)C(C)C)ccc1F [Compound 397] | > 0.01% | 0.0019% | < 100 µg | < 0.1%
CC(C)C(=Nc1ccc(F)c(Br)c1)OCc1cccc(Oc2ccc(Cl)cc2)c1 [Compound 398] | > 0.01% | < 0.1% | < 100 µg | < 0.1%
Cc1cc(N=C(OCc2ccc(F)c(Oc3ccc(Cl)cc3)c2)C(C)C)ccc1F [Compound 399] | > 0.01% | 0.0012% | < 100 µg | 0.025%
Cc1cc(N=C(OCc2ccc(F)c(Oc3ccccc3)c2)C(C)C)ccc1F [Compound 400] | > 0.01% | 0.0007% | < 100 µg | 0.025%
Cc1cccc(N=C(OCc2ccc(F)c(Oc3ccc(Cl)cc3)c2)C(C)C)c1 [Compound 401] | > 0.01% | 0.0017% | < 100 µg | 0.04%
Cc1ccc(N=C(OCc2cccc(Oc3ccc(F)cc3)c2)C(C)C)cc1Cl [Compound 402] | > 0.01% | > 0.1% | < 100 µg | > 0.1%
Cc1ccc(N=C(OCc2cccc(Oc3ccc(Cl)cc3)c2)C(C)C)cc1Cl [Compound 403] | > 0.01% | > 0.1% | < 100 µg | > 0.1%
Cc1ccc(N=C(OCc2ccc(F)c(Oc3ccc(Cl)cc3)c2)C(C)C)cc1Cl [Compound 404] | > 0.01% | > 0.1% | < 100 µg | 0.025%
Cc1cccc(N=C(OCc2cccc(Oc3ccc(F)cc3)c2)C(C)C)c1 [Compound 405] | > 0.01% | > 0.1% | < 100 µg | > 0.1%
Cc1ccc(N=C(OCc2ccc(F)c(Oc3ccc(Cl)cc3)c2)C(C)C)cc1C [Compound 406] | > 0.01% | > 0.1% | < 100 µg | < 0.1%
